pIC50: −log10 of the molar value. Calls of active or inactive are those of the source.
Tests used:
[1] = tested on: Mus musculus; assay: Antiinflammatory activity against MC093-induced atopic dermatitis BALB/c mouse model assessed as reduction in IL-13 level in serum at 50 to 100 mg/kg, IG administered starting from day 4 to 10 after MC093-stimulation; assay type: functional, organism-based; details: dose 50-100 mg/kg, time 7.0 day
[2] = tested on: Mus musculus; assay: Antiinflammatory activity against MC093-induced atopic dermatitis BALB/c mouse model assessed as reduction in IL-33 level in serum at 50 to 100 mg/kg, IG administered starting from day 4 to 10 after MC093-stimulation; assay type: functional, organism-based; details: dose 50-100 mg/kg, time 7.0 day
[3] = tested on: Mus musculus; assay: Antiinflammatory activity against MC093-induced atopic dermatitis BALB/c mouse model assessed as reduction in number of scratches at 50 to 100 mg/kg, IG administered starting from day 4 to 10 and measured after 30 mins of MC093-stimulation; assay type: functional, organism-based; details: dose 50-100 mg/kg, time 7.0 day
[4] = molecular target: Transcription factor p65 (Mus musculus) (UniProt Q04207); assay: Inhibition of P65 phosphorylation in LPS induced mouse RAW264.7 cells preincubated for 2 hrs followed by LPS addition and measured after 24 hrs by Western blot analysis; assay type: cell-based; details: dose 2.5-10 µmol, time 26.0 hrs
Chain of Transcription factor p65 (Mus musculus) (Q04207 whole entry): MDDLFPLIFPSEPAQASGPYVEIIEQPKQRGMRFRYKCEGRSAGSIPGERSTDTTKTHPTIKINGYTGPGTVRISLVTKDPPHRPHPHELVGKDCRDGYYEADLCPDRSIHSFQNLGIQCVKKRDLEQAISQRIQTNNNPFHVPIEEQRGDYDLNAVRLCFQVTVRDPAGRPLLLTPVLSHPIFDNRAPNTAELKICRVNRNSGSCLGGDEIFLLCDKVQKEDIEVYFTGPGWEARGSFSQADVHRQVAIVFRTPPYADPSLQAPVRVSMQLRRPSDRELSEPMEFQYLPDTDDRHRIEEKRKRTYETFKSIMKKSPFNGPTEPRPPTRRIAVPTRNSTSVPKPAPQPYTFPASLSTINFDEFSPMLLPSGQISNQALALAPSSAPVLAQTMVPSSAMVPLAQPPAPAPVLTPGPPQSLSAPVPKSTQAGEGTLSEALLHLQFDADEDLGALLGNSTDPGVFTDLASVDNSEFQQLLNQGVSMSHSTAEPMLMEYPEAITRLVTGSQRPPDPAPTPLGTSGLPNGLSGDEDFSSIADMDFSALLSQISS

[5] = tested on: Mus musculus; assay: In vivo inhibition of […] signalling pathway in MC093-induced atopic dermatitis BALB/c mouse model assessed as reduction in P65 phosphorylation level in ear skin at 50 to 100 mg/kg, IG administered starting from day 4 to 10 after MC093-stimulation by immunohistochemistry analysis; assay type: functional, organism-based; details: dose 50-100 mg/kg, time 7.0 day
[6] = tested on: Mus musculus; assay: Antiinflammatory activity against MC093-induced atopic dermatitis BALB/c mouse model assessed as reduction in IgE level in serum at 50 to 100 mg/kg, IG administered starting from day 4 to 10 after MC093-stimulation; assay type: functional, organism-based; details: dose 50-100 mg/kg, time 7.0 day
[7] = tested on: Mus musculus; assay: Antiinflammatory activity against MC093-induced atopic dermatitis BALB/c mouse model assessed as reduction in ear swelling at 50 to 100 mg/kg, IG administered starting from day 4 to 10 after MC093-stimulation; assay type: functional, organism-based; details: dose 50-100 mg/kg, time 7.0 day
[8] = tested on: Mus musculus; assay: In vivo inhibition of NFkappaB signalling pathway in IG dosed MC093-induced atopic dermatitis BALB/c mouse model assessed as reduction in IkappaB-alpha phosphorylation level in ear skin starting from day 4 to 10 after MC093-stimulation by Western blot analysis; assay type: functional, organism-based; details: dose 50-100 mg/kg, time 7.0 day
[9] = tested on: Mus musculus; assay: In vivo inhibition of NFkappaB signalling pathway in IG dosed MC093-induced atopic dermatitis BALB/c mouse model assessed as reduction in P65 phosphorylation level in ear skin starting from day 4 to 10 after MC093-stimulation by Western blot analysis; assay type: functional, organism-based; details: dose 50-100 mg/kg, time 7.0 day
[10] = tested on: Mus musculus; assay: Antiinflammatory activity against MC093-induced atopic dermatitis BALB/c mouse model assessed as reduction in scratching latency at 50 to 100 mg/kg, IG administered starting from day 4 to 10 and measured after 30 mins of MC093-stimulation; assay type: functional, organism-based; details: dose 50-100 mg/kg, time 7.0 day
[11] = tested on: RAW264.7; assay: Inhibition of LPS-induced NO production in mouse RAW264.7 cells preincubated for 2 hrs followed by LPS addition and measured after 24 hrs by Griess assay relative to control; assay type: functional, cell-based
[12] = tested on: Mus musculus; assay: Antiinflammatory activity against MC093-induced atopic dermatitis BALB/c mouse model assessed as reduction in inflammatory cell infiltration in ear at 50 to 100 mg/kg, IG administered starting from day 4 to 10 after MC093-stimulation by H and E staining assay; assay type: functional, organism-based; details: dose 50-100 mg/kg, time 7.0 day
[13] = tested on: RAW264.7; assay: Inhibition of LPS-induced NO production in mouse RAW264.7 cells at 20 uM preincubated for 2 hrs followed by LPS addition and measured after 24 hrs by Griess assay relative to control; assay type: functional; details: time 26 hrs
[14] = tested on: Mus musculus; assay: Antiinflammatory activity against MC093-induced atopic dermatitis BALB/c mouse model assessed as reduction in TSLP level in serum at 50 to 100 mg/kg, IG administered starting from day 4 to 10 after MC093-stimulation; assay type: functional, organism-based; details: dose 50-100 mg/kg, time 7.0 day
[15] = tested on: Mus musculus; assay: Antiinflammatory activity against MC093-induced atopic dermatitis BALB/c mouse model assessed as reduction in IL-5 level in serum at 50 to 100 mg/kg, IG administered starting from day 4 to 10 after MC093-stimulation; assay type: functional, organism-based; details: dose 50-100 mg/kg, time 7.0 day
[16] = tested on: Mus musculus; assay: Antiinflammatory activity against MC093-induced atopic dermatitis BALB/c mouse model assessed as reduction in epidermal thickness of ear at 50 to 100 mg/kg, IG administered starting from day 4 to 10 after MC093-stimulation by H and E staining assay; assay type: functional, organism-based; details: dose 50-100 mg/kg, time 7.0 day
[17] = molecular target: MAP kinase p38 (Mus musculus) (UniProt P47811+O08911+Q9WUI1+Q9Z1B7); assay: Inhibition of P38 phosphorylation in LPS-induced mouse RAW264.7 cells preincubated for 2 hrs followed by LPS addition and measured after 24 hrs by Western blot analysis; assay type: cell-based; details: dose 2.5-10 µmol, time 26.0 hrs
[18] = molecular target: T1, Inhibitor of nuclear factor kappa-B kinase subunit alpha (Mus musculus) (UniProt Q60680); assay: Inhibition of IkappaB-alpha phosphorylation in LPS induced mouse RAW264.7 cells preincubated for 2 hrs followed by LPS addition and measured after 24 hrs by Western blot analysis; assay type: cell-based; details: dose 2.5-10 µmol, time 26.0 hrs
T1 sequence (whole entry): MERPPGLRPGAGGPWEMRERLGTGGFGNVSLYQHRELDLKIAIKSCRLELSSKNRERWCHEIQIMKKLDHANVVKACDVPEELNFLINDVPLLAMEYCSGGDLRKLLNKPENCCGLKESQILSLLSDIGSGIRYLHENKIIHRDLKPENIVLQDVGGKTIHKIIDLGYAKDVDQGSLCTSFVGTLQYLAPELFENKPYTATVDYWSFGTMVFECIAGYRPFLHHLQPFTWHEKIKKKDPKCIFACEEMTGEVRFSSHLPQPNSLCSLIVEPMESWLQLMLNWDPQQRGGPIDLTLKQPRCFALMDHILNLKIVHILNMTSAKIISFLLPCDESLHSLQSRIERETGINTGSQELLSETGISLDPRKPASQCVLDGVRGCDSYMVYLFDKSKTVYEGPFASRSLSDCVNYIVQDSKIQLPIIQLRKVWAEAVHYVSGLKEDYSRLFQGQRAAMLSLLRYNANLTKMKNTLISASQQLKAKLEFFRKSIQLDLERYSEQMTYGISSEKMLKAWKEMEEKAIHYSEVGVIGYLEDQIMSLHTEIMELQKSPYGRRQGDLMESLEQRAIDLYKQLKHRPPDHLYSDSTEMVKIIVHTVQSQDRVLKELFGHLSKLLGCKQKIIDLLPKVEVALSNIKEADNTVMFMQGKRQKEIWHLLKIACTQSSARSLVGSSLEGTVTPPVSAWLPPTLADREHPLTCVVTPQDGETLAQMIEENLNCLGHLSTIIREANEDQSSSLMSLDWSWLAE

[19] = tested on: Mus musculus; assay: Antiinflammatory activity against MC093-induced atopic dermatitis BALB/c mouse model assessed as reduction in IL-4 level in serum at 50 to 100 mg/kg, IG administered starting from day 4 to 10 after MC093-stimulation; assay type: functional, organism-based; details: dose 50-100 mg/kg, time 7.0 day
[20] = tested on: Mus musculus; assay: Antiinflammatory activity against MC093-induced atopic dermatitis BALB/c mouse model assessed as reduction in HIS level in serum at 50 to 100 mg/kg, IG administered starting from day 4 to 10 after MC093-stimulation; assay type: functional, organism-based; details: dose 50-100 mg/kg, time 7.0 day
[21] = tested on: Mus musculus; assay: In vivo inhibition of MAPK signalling pathway in MC093-induced atopic dermatitis BALB/c mouse model assessed as reduction in p-ERK/ERK ratio in ear skin at 50 to 100 mg/kg, IG administered starting from day 4 to 10 after MC093-stimulation by Western blot analysis; assay type: functional, organism-based; details: dose 50-100 mg/kg, time 7.0 day
[22] = Cytotoxicity against mouse RAW264.7 cells assessed as inhibition of cell viability at 20 uM by MTT assay relative to control; assay type: toxicity, cell-based; details: read-out: INH
[23] = tested on: Mus musculus; assay: In vivo inhibition of MAPK signalling pathway in MC093-induced atopic dermatitis BALB/c mouse model assessed as reduction in p-JNK/JNK ratio in ear skin at 50 to 100 mg/kg, IG administered starting from day 4 to 10 after MC093-stimulation by Western blot analysis; assay type: functional, organism-based; details: dose 50-100 mg/kg, time 7.0 day
[24] = tested on: Mus musculus; assay: Antiinflammatory activity against MC093-induced atopic dermatitis BALB/c mouse model assessed as reduction in weight of ear at 50 to 100 mg/kg, IG administered starting from day 4 to 10 after MC093-stimulation; assay type: functional, organism-based; details: dose 50-100 mg/kg, time 7.0 day
[25] = Cytotoxicity against mouse RAW264.7 cells assessed as inhibition of cell viability by MTT assay relative to control; assay type: toxicity, cell-based
[26] = tested on: Mus musculus; assay: In vivo inhibition of MAPK signalling pathway in MC093-induced atopic dermatitis BALB/c mouse model assessed as reduction in p-P38/P38 ratio in ear skin at 50 to 100 mg/kg, IG administered starting from day 4 to 10 after MC093-stimulation by Western blot analysis; assay type: functional, organism-based; details: dose 50-100 mg/kg, time 7.0 day
[27] = tested on: Mus musculus; assay: In vivo inhibition of […] signalling pathway in MC093-induced atopic dermatitis BALB/c mouse model assessed as reduction in IkappaB-alpha phosphorylation level in ear skin at 50 to 100 mg/kg, IG administered starting from day 4 to 10 after MC093-stimulation by immunohistochemistry analysis; assay type: functional, organism-based; details: dose 50-100 mg/kg, time 7.0 day

C=C1CC[C@H]2C(=C)CC[C@H]3C(CN(CCNS(=O)(=O)c4ccc(C(F)(F)F)cc4)S(=O)(=O)c4ccc(C(F)(F)F)cc4)C(=O)O[C@@H]3[C@@H]12 (some centres not stated)
-6.84%: cytotoxicity at 20 µM [22]
5.68: pIC50 [11]
85.1%: inhibition at 20 µM [13]
< 4.40: pIC50 [25]
active: Activity [1] | Activity [2] | Activity [3] | inhibition [4] Dose-Dependent Effect | inhibition [5] | Activity [6] | Activity [7] | inhibition [8] Dose-Dependent Effect | inhibition [9] Dose-Dependent Effect | Activity [10] | Activity [12] | Activity [14] | Activity [15] | Activity [16] | inhibition [17] Dose-Dependent Effect | inhibition [18] Dose-Dependent Effect | Activity [19] | Activity [24] | inhibition [27]
inactive: Activity [20] | inhibition [21] | inhibition [23] | inhibition [26]
